Patent US10537563B2, “Methods for treating ocular disease using inhibitors of CSF-1R” (NOVARTIS AG, priority 2016, dated 2020)

Key:
[1] = biological target: T1, BaF-NPM-ALK (Homo sapiens, UniProt Q9UM73); experiment: BaF3 proliferation assay; type: cell-based, murine
T1 construct: expressed in transfected cells; host or cells: BaF3 (murine pro-B cell line); the other entry of the earlier key: NPM1 (P06748, Nucleophosmin)

[2] = biological target: T2, CSF_1_RK (h) (Homo sapiens, UniProt P07333); experiment: Kinase profiling at Invitrogen; type: biochemical
T2 construct: purchased Invitrogen
T2 sequence (P07333 20-972): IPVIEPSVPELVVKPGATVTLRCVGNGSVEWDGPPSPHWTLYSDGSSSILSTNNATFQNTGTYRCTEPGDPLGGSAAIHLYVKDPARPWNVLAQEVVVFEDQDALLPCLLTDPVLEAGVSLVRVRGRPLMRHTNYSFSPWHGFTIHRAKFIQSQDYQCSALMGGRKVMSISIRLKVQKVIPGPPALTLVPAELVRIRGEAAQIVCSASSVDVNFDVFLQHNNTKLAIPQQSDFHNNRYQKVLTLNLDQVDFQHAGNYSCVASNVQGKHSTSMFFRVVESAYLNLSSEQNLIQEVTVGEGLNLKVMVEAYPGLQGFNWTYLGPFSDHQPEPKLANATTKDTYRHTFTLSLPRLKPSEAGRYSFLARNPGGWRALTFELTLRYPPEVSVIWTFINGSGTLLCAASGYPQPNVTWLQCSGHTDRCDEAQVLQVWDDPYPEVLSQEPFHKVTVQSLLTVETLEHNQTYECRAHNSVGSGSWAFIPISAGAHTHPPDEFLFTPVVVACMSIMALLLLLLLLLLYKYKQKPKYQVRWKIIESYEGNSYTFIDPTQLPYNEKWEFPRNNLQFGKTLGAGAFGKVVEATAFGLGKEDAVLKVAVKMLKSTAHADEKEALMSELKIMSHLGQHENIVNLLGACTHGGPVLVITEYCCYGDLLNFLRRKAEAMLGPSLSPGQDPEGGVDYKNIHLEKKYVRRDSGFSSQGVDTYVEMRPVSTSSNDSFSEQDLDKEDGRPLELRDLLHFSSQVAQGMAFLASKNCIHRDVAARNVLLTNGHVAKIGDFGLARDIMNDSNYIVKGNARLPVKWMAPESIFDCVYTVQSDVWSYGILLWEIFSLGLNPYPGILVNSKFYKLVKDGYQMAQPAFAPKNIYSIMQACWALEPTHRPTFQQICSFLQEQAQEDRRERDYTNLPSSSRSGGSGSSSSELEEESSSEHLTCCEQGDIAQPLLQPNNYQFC

[3] = biological target: PDK_1 (Homo sapiens, UniProt O15530); experiment: In vitro kinase assay (Table 1); type: biochemical
[4] = biological target: Jak2 (Homo sapiens, UniProt O60674); experiment: In vitro kinase assay (Table 1); type: biochemical
[5] = tested on: human macrophages; experiment: CSF-1 and IL-34 mediated macrophage survival; type: cell-based; conditions: 0.1 to 10 μM; 4 donors
Experimental: (§1) Freshly isolated human PBMCs were used to purify human monocytes by negative selection using an indirect magnetic labeling system. […] Soluble factors such as cytokines (VEGFa, IL-6 etc.) and chemokines (IL-8, MCP-1, MMP9 etc.) in the culture supernatant were measured using commercial ELISA kits. The in vitro survival of human macrophages was measured using a commercially available CellTiter-Glo® system. Most observed results were repeated in multiple donors (n>5).
A dose range (0 to 100 ng/ml) of CSF-1 or IL-34 was tested and macrophage survival positively correlated with increasing dose of CSF-1 or IL-34 with no difference between the 2 factors observed.

[6] = biological target: T3, BAF/Tel-EphA3-4.2/sACP (Homo sapiens, UniProt P29320); experiment: BaF3 proliferation assay; type: cell-based, murine
T3 construct: fused on or other part: P41212 (Transcription factor ETV6)
T3 sequence (P29320 621-882 limits assumed, change not shown): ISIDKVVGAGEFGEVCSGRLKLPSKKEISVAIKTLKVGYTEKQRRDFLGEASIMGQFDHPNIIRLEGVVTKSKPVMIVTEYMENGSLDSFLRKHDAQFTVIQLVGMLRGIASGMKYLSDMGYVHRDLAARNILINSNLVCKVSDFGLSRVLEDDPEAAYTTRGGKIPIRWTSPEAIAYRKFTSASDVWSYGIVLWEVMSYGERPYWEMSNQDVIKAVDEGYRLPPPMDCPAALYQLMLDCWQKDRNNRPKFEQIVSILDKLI

[7] = biological target: T4, BAF/Tel-MER-3.2 (Homo sapiens, UniProt Q12866); experiment: BaF3 proliferation assay; type: cell-based, murine
T4 construct: fused on or other part: P41212 (Transcription factor ETV6)
T4 sequence (Q12866 587-858 limits assumed, change not shown): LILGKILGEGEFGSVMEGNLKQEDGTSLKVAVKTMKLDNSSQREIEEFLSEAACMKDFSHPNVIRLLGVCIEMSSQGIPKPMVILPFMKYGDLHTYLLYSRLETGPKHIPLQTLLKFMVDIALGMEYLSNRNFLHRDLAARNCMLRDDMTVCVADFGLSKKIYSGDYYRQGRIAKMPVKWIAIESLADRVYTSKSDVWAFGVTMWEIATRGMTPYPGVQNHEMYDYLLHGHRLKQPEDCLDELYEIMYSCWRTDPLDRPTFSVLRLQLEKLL

[8] = biological target: Pim3 (Homo sapiens, UniProt Q86V86); experiment: In vitro kinase assay (Table 1); type: biochemical
[9] = biological target: Lck (Homo sapiens, UniProt P06239); experiment: In vitro kinase assay (Table 1); type: biochemical
[10] = biological target: PKC_alpha (Homo sapiens, UniProt P17252); experiment: In vitro kinase assay (Table 1); type: biochemical
[11] = biological target: PIK4Cbeta (Homo sapiens, UniProt Q9UBF8); experiment: In vitro kinase assay (Table 1); type: biochemical
Chain of PIK4Cbeta (Q9UBF8 whole entry): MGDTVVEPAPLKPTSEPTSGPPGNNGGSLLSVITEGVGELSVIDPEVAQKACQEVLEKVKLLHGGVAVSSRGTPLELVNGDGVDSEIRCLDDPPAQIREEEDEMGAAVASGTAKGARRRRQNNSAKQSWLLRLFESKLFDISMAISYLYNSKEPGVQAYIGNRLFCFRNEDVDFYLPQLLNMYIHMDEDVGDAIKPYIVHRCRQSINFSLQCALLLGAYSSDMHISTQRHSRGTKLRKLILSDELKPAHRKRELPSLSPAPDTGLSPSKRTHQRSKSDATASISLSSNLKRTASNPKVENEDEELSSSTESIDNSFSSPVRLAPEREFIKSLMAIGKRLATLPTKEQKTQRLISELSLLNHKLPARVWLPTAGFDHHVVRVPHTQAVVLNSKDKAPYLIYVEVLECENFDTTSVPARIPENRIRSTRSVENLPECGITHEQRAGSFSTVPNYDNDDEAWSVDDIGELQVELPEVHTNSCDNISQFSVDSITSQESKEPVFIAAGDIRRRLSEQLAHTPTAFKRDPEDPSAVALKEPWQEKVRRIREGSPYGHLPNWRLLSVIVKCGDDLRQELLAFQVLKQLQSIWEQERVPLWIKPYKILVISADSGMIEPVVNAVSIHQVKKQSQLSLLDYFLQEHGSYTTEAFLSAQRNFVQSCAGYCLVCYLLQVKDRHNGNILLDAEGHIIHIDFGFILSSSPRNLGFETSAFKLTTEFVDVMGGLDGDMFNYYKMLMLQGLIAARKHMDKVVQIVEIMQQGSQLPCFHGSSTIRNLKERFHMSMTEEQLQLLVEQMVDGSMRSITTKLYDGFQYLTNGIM

[12] = biological target: COT (Homo sapiens, UniProt P41279); experiment: In vitro kinase assay (Table 1); type: biochemical
Chain of COT (P41279 whole entry): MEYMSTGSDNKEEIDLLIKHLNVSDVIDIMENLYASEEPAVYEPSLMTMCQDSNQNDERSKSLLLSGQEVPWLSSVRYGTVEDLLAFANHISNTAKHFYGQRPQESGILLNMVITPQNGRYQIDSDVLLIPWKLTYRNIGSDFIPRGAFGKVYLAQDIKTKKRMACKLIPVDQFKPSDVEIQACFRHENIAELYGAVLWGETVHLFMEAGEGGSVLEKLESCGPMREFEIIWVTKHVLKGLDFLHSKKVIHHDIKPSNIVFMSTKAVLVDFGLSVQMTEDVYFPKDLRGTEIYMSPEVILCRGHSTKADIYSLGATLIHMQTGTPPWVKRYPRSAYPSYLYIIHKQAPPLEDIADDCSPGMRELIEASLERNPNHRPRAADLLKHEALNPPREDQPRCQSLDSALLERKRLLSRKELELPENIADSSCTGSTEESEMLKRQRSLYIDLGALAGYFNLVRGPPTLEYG

[13] = biological target: Syk (Homo sapiens, UniProt P43405); experiment: In vitro kinase assay (Table 1); type: biochemical
[14] = biological target: T5, BAF/Tel-TRKC-Q2/sACP (Homo sapiens, UniProt Q16288); experiment: BaF3 proliferation assay; type: cell-based, murine
T5 construct: fused on or other part: P41212 (Transcription factor ETV6)

[15] = biological target: p38alpha (Homo sapiens, UniProt Q16539); experiment: In vitro kinase assay (Table 1); type: biochemical
[16] = tested on: human monocytes; experiment: Human monocyte survival in culture; type: cell-based; conditions: concentration dependent effect
Experimental: as §1

[17] = biological target: ROS (Homo sapiens, UniProt P08922); experiment: In vitro kinase assay (Table 1); type: biochemical
[18] = biological target: Ron (Homo sapiens, UniProt Q04912); experiment: In vitro kinase assay (Table 1); type: biochemical
Chain of Ron (Q04912 25-1400, species assumed): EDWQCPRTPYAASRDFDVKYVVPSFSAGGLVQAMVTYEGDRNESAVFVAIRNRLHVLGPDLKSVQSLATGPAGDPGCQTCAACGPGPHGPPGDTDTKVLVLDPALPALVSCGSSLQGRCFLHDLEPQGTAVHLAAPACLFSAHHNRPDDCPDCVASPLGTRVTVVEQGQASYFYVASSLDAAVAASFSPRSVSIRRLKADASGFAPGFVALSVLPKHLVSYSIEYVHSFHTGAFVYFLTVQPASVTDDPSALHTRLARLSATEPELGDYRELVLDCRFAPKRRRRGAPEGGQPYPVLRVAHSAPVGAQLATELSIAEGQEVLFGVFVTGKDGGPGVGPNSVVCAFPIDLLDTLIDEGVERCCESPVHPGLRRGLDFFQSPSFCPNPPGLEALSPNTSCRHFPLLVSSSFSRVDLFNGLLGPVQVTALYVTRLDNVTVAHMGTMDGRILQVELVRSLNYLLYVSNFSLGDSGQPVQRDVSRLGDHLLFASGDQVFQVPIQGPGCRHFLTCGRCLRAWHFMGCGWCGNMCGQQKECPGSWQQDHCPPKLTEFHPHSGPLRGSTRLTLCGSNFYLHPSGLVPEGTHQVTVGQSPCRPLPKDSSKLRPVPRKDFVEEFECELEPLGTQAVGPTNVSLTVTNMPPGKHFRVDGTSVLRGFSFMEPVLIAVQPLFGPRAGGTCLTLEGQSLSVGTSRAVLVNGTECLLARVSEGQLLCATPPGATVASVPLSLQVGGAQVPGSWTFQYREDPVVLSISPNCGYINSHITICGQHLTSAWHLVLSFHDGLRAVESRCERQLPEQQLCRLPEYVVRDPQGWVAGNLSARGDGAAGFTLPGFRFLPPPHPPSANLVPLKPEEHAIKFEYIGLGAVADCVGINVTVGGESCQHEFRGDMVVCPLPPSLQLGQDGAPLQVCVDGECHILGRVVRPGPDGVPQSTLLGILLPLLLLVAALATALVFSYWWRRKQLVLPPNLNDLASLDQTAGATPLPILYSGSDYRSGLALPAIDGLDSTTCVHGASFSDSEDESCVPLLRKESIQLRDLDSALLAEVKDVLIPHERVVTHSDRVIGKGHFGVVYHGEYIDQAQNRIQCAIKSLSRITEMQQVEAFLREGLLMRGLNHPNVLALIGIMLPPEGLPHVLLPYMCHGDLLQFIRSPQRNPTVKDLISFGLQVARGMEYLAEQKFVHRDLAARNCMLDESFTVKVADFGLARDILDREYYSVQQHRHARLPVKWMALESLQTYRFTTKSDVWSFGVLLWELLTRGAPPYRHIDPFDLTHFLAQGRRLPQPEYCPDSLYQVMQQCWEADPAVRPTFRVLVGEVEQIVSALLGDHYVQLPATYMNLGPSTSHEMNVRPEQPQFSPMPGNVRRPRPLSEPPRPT

[19] = biological target: Hck (Homo sapiens, UniProt P08631); experiment: In vitro kinase assay (Table 1); type: biochemical
[20] = biological target: Ck2alpha1 (Homo sapiens, UniProt P68400); experiment: In vitro kinase assay (Table 1); type: biochemical
Chain of Ck2alpha1 (P68400 whole entry): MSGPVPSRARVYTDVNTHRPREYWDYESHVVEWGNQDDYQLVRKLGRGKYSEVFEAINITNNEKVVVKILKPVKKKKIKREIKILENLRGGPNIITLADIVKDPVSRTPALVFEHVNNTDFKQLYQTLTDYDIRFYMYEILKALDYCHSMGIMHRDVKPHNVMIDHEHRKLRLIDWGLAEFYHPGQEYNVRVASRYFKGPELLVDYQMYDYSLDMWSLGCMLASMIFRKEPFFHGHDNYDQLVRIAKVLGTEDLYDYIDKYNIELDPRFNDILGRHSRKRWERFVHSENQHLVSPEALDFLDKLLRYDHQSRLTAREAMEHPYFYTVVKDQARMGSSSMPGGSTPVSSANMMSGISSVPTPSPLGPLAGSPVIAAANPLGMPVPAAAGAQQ

[21] = biological target: T6, BAF/Tel-FGFR3-Q2/sACP (Homo sapiens, UniProt P22607); experiment: BaF3 proliferation assay; type: cell-based, murine
T6 construct: fused on or other part: P41212 (Transcription factor ETV6)

[22] = biological target: T7, BAF/Tel-Src-3.1/sACP (Homo sapiens, UniProt P12931); experiment: BaF3 proliferation assay; type: cell-based, murine
T7 construct: fused on or other part: P41212 (Transcription factor ETV6)

[23] = tested on: CSF-1 receptor; experiment: CSF-1 receptor expression on human monocytes; type: cell-based; conditions: day 1 to day 3
Experimental: as §1

[24] = biological target: PIK3C_VPS34 (Homo sapiens, UniProt Q8NEB9); experiment: In vitro kinase assay (Table 1); type: biochemical
[25] = biological target: Abl (Homo sapiens, UniProt P00519); experiment: In vitro kinase assay (Table 1); type: biochemical
[26] = tested on: VEGFa; experiment: VEGFa production by human macrophages; type: cell-based; conditions: stimulation with MCSF or IL-34
Experimental: as §1
Activated human macrophages are a source of VEGFa. Human macrophages produce VEGFa following stimulation with MCSF or IL-34.

[27] = tested on: VEGF; experiment: Interaction with VEGF versus CSF-1 receptor signaling; conditions: at concentrations where the signaling of the CSF-1 receptor is strongly or completely inhibited
[28] = biological target: T8, BaF3-Tel-INSR 1.2 (Homo sapiens, UniProt P06213); experiment: BaF3 proliferation assay; type: cell-based, murine
T8 construct: fused on or other part: P41212 (Transcription factor ETV6)

[29] = biological target: T9, BAF/Bcr-Abl-Luc/sACP (Homo sapiens, UniProt P00519); experiment: BaF3 proliferation assay; type: cell-based, murine
T9 construct: no part of the key; P11274 (Breakpoint cluster region protein)

[30] = biological target: T10, BAF/Tel-Ros-1.1/sACP (Homo sapiens, UniProt P08922); experiment: BaF3 proliferation assay; type: cell-based, murine
T10 construct: fused on or other part: P41212 (Transcription factor ETV6)

[31] = biological target: Plk1 (Homo sapiens, UniProt P53350); experiment: In vitro kinase assay (Table 1); type: biochemical
[32] = biological target: Erk1 (Homo sapiens, UniProt P27361); experiment: In vitro kinase assay (Table 1); type: biochemical
Chain of Erk1 (P27361 whole entry, species assumed): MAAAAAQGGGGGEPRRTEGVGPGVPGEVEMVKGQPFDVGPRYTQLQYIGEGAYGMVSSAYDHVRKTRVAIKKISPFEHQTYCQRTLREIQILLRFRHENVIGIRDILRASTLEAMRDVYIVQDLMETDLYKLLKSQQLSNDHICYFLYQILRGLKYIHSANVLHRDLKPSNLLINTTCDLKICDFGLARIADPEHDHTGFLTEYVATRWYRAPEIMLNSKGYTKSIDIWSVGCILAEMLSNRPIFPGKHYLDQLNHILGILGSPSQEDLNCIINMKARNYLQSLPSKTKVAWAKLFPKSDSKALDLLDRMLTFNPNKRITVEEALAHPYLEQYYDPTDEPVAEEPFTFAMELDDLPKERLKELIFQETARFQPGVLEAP

[33] = tested on: MMP-9; experiment: MMP-9 production by human monocytes (ELISA); type: cell-based; conditions: Monocyte
Experimental: as §1

[34] = biological target: PKC_epsilon (Homo sapiens, UniProt Q02156); experiment: In vitro kinase assay (Table 1); type: biochemical

With CNC(=O)c1cc(Oc2ccc3nc(NC4CCCCC4O)sc3c2)ccn1 (stereo not shown) [Compound (I)] the EC50 [1] was > 10 µM, the inhibition at 0.5 µM ([2]; read-out: % inhibition @ 0.5 μM, CSF_1_RK (h)) was 97% and the inhibition at 5 µM ([2]; read-out: % inhibition @ 5 μM, CSF_1_RK (h)) was 99%. For the same compound, the inhibition at 20 µM ([2]; read-out: % inhibition @ 20 μM, CSF_1_RK (h)) was 95%, the IC50 [3] was > 25 µM and the IC50 [4] was > 25 µM. The “CSF-1 mediated macrophage survival” value [5] was “significantly affects”, the “IL-34 mediated macrophage survival” value [5] was “significantly affects” and the EC50 [6] was > 10 µM. For the same compound, the EC50 [7] was > 10 µM, the IC50 [8] was > 25 µM and the IC50 [9] was > 10 µM. For the same compound, the IC50 [10] was > 10 µM, the IC50 [11] was > 25 µM and the IC50 [12] was > 25 µM. The IC50 [13] was > 10 µM, the EC50 [14] was > 10 µM and the IC50 [15] was > 25 µM. The “concentration at which monocyte survival was significantly affected” value [16] was ≥ 0.6 µM, the IC50 [17] was > 10 µM and the IC50 [18] was > 10 µM. The IC50 [19] was > 10 µM, the IC50 [20] was > 10 µM and the EC50 [21] was > 10 µM. For the same compound, the EC50 [22] was > 10 µM, the “CSF-1 receptor expression on human monocytes” value [23] was “increased” and the IC50 [24] was > 25 µM. The IC50 [25] was > 10 µM, the “VEGFa levels of human macrophages” value [26] was “significantly decreased” and the “interaction with VEGF” value [27] was “not to interact strongly”. For the same compound, the EC50 [28] was > 10 µM, the EC50 [29] was > 10 µM and the EC50 [30] was > 10 µM. The IC50 [31] was > 25 µM, the IC50 [32] was > 10 µM and the inhibition at 0.05 µM [33] was 30 to 50%. For the same compound, the IC50 [34] was > 25 µM.
